Among the test systems are CCRF-CEM leukemia; HCT-116 colon; HOP-62 NSCLC; KM12 colon; MALME-3M melanoma; MDA-MB-435; NCI-H23 lung; OVCAR-4 ovarian; TK-10 renal; UO-31 renal.
Holding throughout (assay): NCI anticancer screen, dose series, 48 h

The structures appear in SMILES notation.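 Each compound was tested at five concentrations against cells in 96-well plates for 48 hours. TGI: concentration producing complete growth inhibition.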 Some results are limits rather than exact numbers.

From PubChem BioAssay (NCI) come the findings set out here.

As to `COc1ccc(/C=N/Nc2nnc3c(n2)c2ccccc2c2nn(-c4ccccc4Cl)nc23)cc1`, the TGI in the test with CCRF-CEM leukemia, in the test on HCT-116 colon, in the test with HOP-62 NSCLC, in the test with KM12 colon, in the test on MALME-3M melanoma and in the test with MDA-MB-435 was above 100 µM each time. For the same compound, the TGI in the test with NCI-H23 lung, in the test on OVCAR-4 ovarian, in the test with TK-10 renal and in the test on UO-31 renal was above 100 µM each time.
Consider `COc1cc2c(cc1OC)C(=O)N(c1ccc(OCCN3CCCC3)cc1)C2=O`, for which the TGI with CCRF-CEM leukemia, with HCT-116 colon, in the test with HOP-62 NSCLC, in the test on KM12 colon, in the test with MALME-3M melanoma and in the test on MDA-MB-435 was above 100 µM in each case. Further, the TGI in the test on NCI-H23 lung, in the test on OVCAR-4 ovarian and in the test with TK-10 renal was above 100 µM in each case.
As to `CC(C)[C@@H]1NC(=O)[C@@H]2N=C(O[C@H]2C)[C@H](C(C)C)NC(=O)C2N=C1O[C@H]2C`, the TGI in the test with CCRF-CEM leukemia, in the test with HCT-116 colon, in the test with HOP-62 NSCLC, in the test with KM12 colon, with MALME-3M melanoma and with MDA-MB-435 was above 100 µM each time. The TGI with NCI-H23 lung, with OVCAR-4 ovarian, in the test with TK-10 renal and in the test on UO-31 renal was above 100 µM in each case.
As for `C[n+]1c(-c2ccc(/C=N/NC(=O)C(=O)N/N=C/c3ccc(-c4cn5ccccc5[n+]4C)cc3)cc2)cn2ccccc21`, the TGI with CCRF-CEM leukemia, in the test with HOP-62 NSCLC, in the test on KM12 colon, in the test with MALME-3M melanoma, in the test on MDA-MB-435 and with NCI-H23 lung was above 100 µM throughout. In addition, the TGI in the test on OVCAR-4 ovarian, in the test on TK-10 renal and in the test on UO-31 renal was above 100 µM each time.
Regarding `CC(NNC(=O)c1ccncc1)c1ccc(Cl)cc1Cl` (centres undefined), the TGI in the test on CCRF-CEM leukemia, with HCT-116 colon, with HOP-62 NSCLC, in the test on KM12 colon, with MALME-3M melanoma and with MDA-MB-435 was above 100 µM in each case. Also, the TGI in the test on NCI-H23 lung, in the test with OVCAR-4 ovarian, in the test on TK-10 renal and in the test on UO-31 renal was above 100 µM in each case.
`CC(=O)O[C@H]1C(=O)[C@@]2(C)[C@H]([C@H](OC(=O)c3ccco3)[C@]3(O)C[C@H](OC(=O)[C@H](O)[C@@H](NC(=O)c4ccccc4)c4ccccc4)C(C)=C1C3(C)C)[C@]1(OC(C)=O)CO[C@@H]1C[C@@H]2O`: the TGI with CCRF-CEM leukemia is 0.837 µM; in the test on HOP-62 NSCLC it was above 25 µM; in the test on KM12 colon, above 25 µM; in the test on MALME-3M melanoma it was above 25 µM; in the test on MDA-MB-435, 0.0591 µM; with NCI-H23 lung, above 25 µM. Moreover, the TGI in the test on OVCAR-4 ovarian, in the test on TK-10 renal and in the test with UO-31 renal was above 25 µM throughout.
With `O=C1C2CC[C@@H]3C(=O)C(Cl)(Cl)[C@@H]3CCC2C1(Cl)Cl` (some centres undefined), the TGI is 63.8 µM in the test with CCRF-CEM leukemia; above 100 µM with HCT-116 colon; above 29.7 µM in the test on HOP-62 NSCLC; above 100 µM in the test with KM12 colon; above 100 µM with MALME-3M melanoma; above 100 µM in the test with MDA-MB-435. Besides, the TGI in the test with NCI-H23 lung, in the test on OVCAR-4 ovarian, in the test with TK-10 renal and with UO-31 renal was above 100 µM each time.
Take `CCc1cc2c(c3c1CCCC3=O)CC1(C2)Cc2cc(CC)c3c(c2C1)C(=O)CCC3`: the TGI with CCRF-CEM leukemia, in the test with HCT-116 colon, in the test on HOP-62 NSCLC, with KM12 colon, in the test with MALME-3M melanoma and in the test with MDA-MB-435 was above 100 µM each time. For the same compound, the TGI with NCI-H23 lung, in the test with OVCAR-4 ovarian, in the test with TK-10 renal and in the test on UO-31 renal was above 100 µM in each case.
On to `c1ccc(-c2c(-c3[nH]c4ccccc4c3-c3ccccc3)[nH]c3ccccc23)cc1`, for which the TGI was 14 µM in the test with CCRF-CEM leukemia; 13.4 µM with HCT-116 colon; 5.03 µM with HOP-62 NSCLC; 11.8 µM with KM12 colon; 31.2 µM with MALME-3M melanoma; 14.9 µM in the test on MDA-MB-435. Further, the TGI came out at 6.68 µM with NCI-H23 lung, 8.78 µM in the test on OVCAR-4 ovarian, 22.4 µM with TK-10 renal and 12.7 µM in the test on UO-31 renal.
Turning to `C#CCOC(=O)C(=[N+]=[N-])C(=O)CC(C)C`, the TGI in the test with CCRF-CEM leukemia, in the test on HCT-116 colon, with HOP-62 NSCLC, in the test on KM12 colon, with MALME-3M melanoma and with MDA-MB-435 was above 10 µM each time. Also, the TGI with NCI-H23 lung, in the test on OVCAR-4 ovarian, in the test with TK-10 renal and in the test on UO-31 renal was above 10 µM each time.
As to `COc1ccc(N=Nc2c(N)nn3c(SC)c(C#N)c(N)nc23)cc1`, the TGI came out at 4.84 µM with CCRF-CEM leukemia; 28.4 µM in the test on HCT-116 colon; 44 µM in the test with HOP-62 NSCLC; 30.2 µM with KM12 colon; 31.7 µM in the test with MALME-3M melanoma; 27.1 µM in the test on MDA-MB-435. Further, the TGI in the test on NCI-H23 lung is 21.1 µM; in the test on OVCAR-4 ovarian it was 35 µM; in the test with TK-10 renal it was 33.6 µM; with UO-31 renal it was 25.4 µM.
For the compound `Cc1cc(=O)n2nc(CSc3nnc(Sc4cc(O)ccc4O)s3)sc2n1`, the TGI in the test with CCRF-CEM leukemia was 48.6 µM; in the test with HCT-116 colon, 41.2 µM; with HOP-62 NSCLC it was above 100 µM; in the test on KM12 colon it was above 100 µM; with MALME-3M melanoma, above 100 µM; in the test on MDA-MB-435, 32.7 µM. The TGI with NCI-H23 lung, in the test on OVCAR-4 ovarian, with TK-10 renal and in the test on UO-31 renal was above 100 µM each time.
Regarding `C=CCN1C(=O)CC(=O)N(NC2=NNC3(C(=O)N2)c2ccccc2-c2ccccc23)C1=S`, the TGI with CCRF-CEM leukemia, with HCT-116 colon, in the test with HOP-62 NSCLC, in the test with MALME-3M melanoma, in the test with MDA-MB-435 and in the test with NCI-H23 lung was above 100 µM in each case. Further, the TGI in the test on OVCAR-4 ovarian, with TK-10 renal and in the test on UO-31 renal was above 100 µM each time.
`Cc1cc(C)n2c(nc3ccccc32)c1C#N`: the TGI with CCRF-CEM leukemia, with HCT-116 colon, in the test on MALME-3M melanoma, in the test on MDA-MB-435, in the test on NCI-H23 lung and in the test with OVCAR-4 ovarian was above 100 µM each time. Besides, the TGI in the test on TK-10 renal and in the test on UO-31 renal was above 100 µM in each case.
